Experimental findings from ChEMBL document CHEMBL3525947, “Potential role of UGT1A4 promoter SNPs in anastrozole pharmacogenomics” (Drug Metab Dispos, 2013) are described below.

Format in all cases: ADME
In data set [1] the test system is Liver microsome. The data set can be described thus: Drug metabolism human liver microsomes treated with 100 uM anastrozole assessed as retention time by mass spectrometry analysis.
The test system of data set [2] is Liver microsome. The data set is described as follows: Drug metabolism human liver microsomes treated with 100 uM lamotrigine assessed as retention time by mass spectrometry analysis. Background: Microsomes from liver hold many membrane-bound enzymes, among them those of drug oxidation.
A short description of data set [3]: Drug metabolism in human liver microsomes assessed as UGT1A4 -217T>G(GG) mutant-mediated compound glucuronidation at 100 uM by mass spectrometry analysis.
Data set [4] can be described thus: Drug metabolism in human liver microsomes assessed as UGT1A4 70C>A (AC) mutant-mediated compound glucuronidation at 100 uM by mass spectrometry analysis.
Data set [5] in a line: Drug metabolism in human liver microsomes assessed as UGT1A4 -36G>A (AA) variant-mediated compound glucuronidation at 100 uM by mass spectrometry analysis.
Data set [6] in a line: Drug metabolism in human liver microsomes assessed as UGT1A4 -217T>G(TT) variant-mediated compound glucuronidation at 100 uM by mass spectrometry analysis.
For data set [7], the system named is Liver microsome. The data set can be described thus: Drug metabolism in human liver microsomes assessed as retention time at 100 uM by mass spectrometry analysis.
The test system of data set [8] is Liver microsome. The data set can be described thus: Drug metabolism in human liver microsomes assessed as glucuronide formation per mg protein by mass spectrometry analysis.
Data set [9] is described as follows: Drug metabolism in human liver microsomes assessed as UGT1A4 -163G>A(GG) variant-mediated compound glucuronidation at 100 uM by mass spectrometry analysis.
Data set [10] can be described thus: Drug metabolism in human liver microsomes assessed as UGT1A4 142T>G (TG) mutant-mediated compound glucuronidation at 100 uM by mass spectrometry analysis.
The nature of data set [11]: Drug metabolism in human liver microsomes assessed as UGT1A4 -36G>A (GG) mutant-mediated compound glucuronidation at 100 uM by mass spectrometry analysis.
A short description of data set [12]: Drug metabolism in human liver microsomes assessed as UGT1A4 -219C>T(CT) mutant-mediated compound glucuronidation at 100 uM by mass spectrometry analysis.
Data set [13] is described as follows: Drug metabolism in human liver microsomes assessed as UGT1A4 -36G>A (AG) variant-mediated compound glucuronidation at 100 uM by mass spectrometry analysis.
Data set [14] can be described thus: Drug metabolism in human liver microsomes assessed as UGT1A4 142T>G (TT) mutant-mediated compound glucuronidation at 100 uM by mass spectrometry analysis.
A short description of data set [15]: Drug metabolism in human liver microsomes assessed as UGT1A4 70C>A (AA) mutant-mediated compound glucuronidation at 100 uM by mass spectrometry analysis.
Data set [16] can be described thus: Drug metabolism in human liver microsomes assessed as UGT1A4 -217T>G(TG) variant-mediated compound glucuronidation at 100 uM by mass spectrometry analysis.
A short description of data set [17]: Drug metabolism in human liver microsomes assessed as UGT1A4 -219C>T(CC) mutant-mediated compound glucuronidation at 100 uM by mass spectrometry analysis.
Data set [18] relates to Liver microsome. The data set can be described thus: Drug metabolism in pooled human liver microsomes assessed as IC50 for hecogenin-mediated inhibition of anastrozole glucuronidation after 90 mins. As to conditions: 1.5 h.
A short description of data set [19]: Drug metabolism in human liver microsomes assessed as UGT1A4 -219C>T(TT) mutant-mediated compound glucuronidation at 100 uM by mass spectrometry analysis.
Data set [20] is described as follows: Drug metabolism in human liver microsomes assessed as UGT1A4 142T>G (GG) mutant-mediated compound glucuronidation at 100 uM by mass spectrometry analysis.
A short description of data set [21]: Drug metabolism in human liver microsomes assessed as UGT1A4 70C>A (CC) mutant-mediated compound glucuronidation at 100 uM by mass spectrometry analysis.
Data set [22] can be described thus: Drug metabolism in human liver microsomes assessed as UGT1A4 -163G>A(AA) variant-mediated compound glucuronidation at 100 uM by mass spectrometry analysis.
Data set [23] has as its target T1, UDP-glucuronosyltransferase 1A4 (Homo sapiens, UniProt P22310).
T1 sequence (P22310 whole entry): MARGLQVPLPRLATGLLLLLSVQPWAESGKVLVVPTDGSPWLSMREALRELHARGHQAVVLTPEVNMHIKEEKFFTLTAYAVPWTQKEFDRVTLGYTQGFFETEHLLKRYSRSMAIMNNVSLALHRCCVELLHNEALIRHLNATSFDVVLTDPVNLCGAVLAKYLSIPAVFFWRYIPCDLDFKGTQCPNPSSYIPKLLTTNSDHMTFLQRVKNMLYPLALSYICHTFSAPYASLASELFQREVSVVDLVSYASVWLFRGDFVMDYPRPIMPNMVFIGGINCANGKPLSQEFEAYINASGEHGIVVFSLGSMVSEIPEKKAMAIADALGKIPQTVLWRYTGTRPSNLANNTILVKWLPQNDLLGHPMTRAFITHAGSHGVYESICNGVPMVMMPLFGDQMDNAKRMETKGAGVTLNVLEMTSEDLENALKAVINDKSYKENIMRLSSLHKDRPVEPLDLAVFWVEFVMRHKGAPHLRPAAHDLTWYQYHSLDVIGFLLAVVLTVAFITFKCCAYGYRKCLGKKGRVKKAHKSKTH
The data set can be described thus: Drug metabolism assessed as hecogenin-mediated inhibition of human recombinant UGT1A4-catalyzed anastrozole glucuronidation after 90 mins.

Data set [24] can be described thus: Drug metabolism in human liver microsomes assessed as UGT1A4 -163G>A(AG) mutant-mediated compound glucuronidation at 100 uM by mass spectrometry analysis.

Structures are written as SMILES.

Take `CC(C)(C#N)c1cc(Cn2c[n+]([C@@H]3O[C@H](C(=O)[O-])[C@@H](O)[C@H](O)[C@H]3O)cn2)cc(C(C)(C)C#N)c1`: the Retention_time with Liver microsome [1] is on record as 2.86 min.
Take `Nc1nc(N)[n+]([C@@H]2O[C@H](C(=O)[O-])[C@@H](O)[C@H](O)[C@H]2O)nc1-c1cccc(Cl)c1Cl`: the Retention_time in the data set on Liver microsome [2] is 1.34 min.
A word on the IC50: it is the concentration that inhibits the measured activity by half. For the compound `CC(C)(C#N)c1cc(Cn2cncn2)cc(C(C)(C)C#N)c1` [ANASTROZOLE], the Drug metabolism turned out to be 1.9 pmol/min/µg in [3]; 0.3 pmol/min/µg in data set [4]; 1.3 pmol/min/µg in data set [5]; 0.3 pmol/min/µg in data set [6]; 0.023 pmol/min in the data set with Liver microsome [8]; 0.4 pmol/min/µg in [9]. The Drug metabolism in [10] came out at 0.3 pmol/min/µg; in data set [11] it was 0.3 pmol/min/µg; in data set [12], 0.9 pmol/min/µg; in [13] it was 1 pmol/min/µg; in data set [14], 0.5 pmol/min/µg; in data set [15] it was 0.8 pmol/min/µg. Further, the Drug metabolism in data set [16] stood at 1.5 pmol/min/µg; in data set [17] it was 0.4 pmol/min/µg; in data set [19], 1 pmol/min/µg; in data set [20], 0.3 pmol/min/µg; in data set [21] it was 0.4 pmol/min/µg; in data set [22], 0.8 pmol/min/µg. Besides, the Drug metabolism in [24] came to 0.7 pmol/min/µg. The Retention_time in the data set with Liver microsome [7] is on record as 3.95 min. Besides, the figures for the IC50 (in the data set with Liver microsome [18]; in data set [23]) were 15 µM and 4.72 µM, respectively.
As to `Nc1nnc(-c2cccc(Cl)c2Cl)c(N)n1` [LAMOTRIGINE], the Retention_time in the data set with Liver microsome [7] was 1.63 min. The Drug metabolism result with Liver microsome [8] is “metabolite_detected”.
